According to ChEMBL document CHEMBL3351798, “Discovery of the CCR1 antagonist, BMS-817399, for the treatment of rheumatoid arthritis” (J Med Chem, 2014):
The source made the active and inactive calls. No cut-off for these calls is given here.

Experiments:
[1] = target: T1, C-C chemokine receptor type 3 (Homo sapiens) (UniProt P51677); experiment: Binding affinity to CCR3 receptor (unknown origin)
T1 sequence (whole entry): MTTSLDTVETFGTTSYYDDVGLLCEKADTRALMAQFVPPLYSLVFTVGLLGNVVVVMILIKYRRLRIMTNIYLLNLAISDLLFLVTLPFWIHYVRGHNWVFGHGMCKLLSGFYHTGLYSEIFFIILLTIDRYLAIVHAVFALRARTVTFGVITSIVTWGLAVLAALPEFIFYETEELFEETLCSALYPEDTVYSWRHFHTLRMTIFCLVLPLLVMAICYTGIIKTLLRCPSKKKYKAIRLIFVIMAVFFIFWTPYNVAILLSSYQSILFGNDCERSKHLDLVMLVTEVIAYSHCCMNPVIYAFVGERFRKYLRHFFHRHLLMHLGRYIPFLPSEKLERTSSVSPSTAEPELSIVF

[2] = Displacement of [125I]hMIP-1alpha from rat CCR1
[3] = Bioavailability in cynomolgus monkey at 5 mg/kg; assay type: ADME, organism-based, Macaca fascicularis; settings: in vivo
[4] = Metabolic stability in mouse liver microsomes assessed as compound remaining at 0.5 uM after 60 mins by UV-LC/MS analysis; assay type: ADME; settings: read-out: Stability
[5] = target: T2, C-C chemokine receptor type 1 (Homo sapiens, UniProt P32246); experiment: Displacement of [125I]MIP-1alpha from CCR1 in human THP1 cells; assay type: cell-based, THP-1
T2 sequence (P32246 whole entry): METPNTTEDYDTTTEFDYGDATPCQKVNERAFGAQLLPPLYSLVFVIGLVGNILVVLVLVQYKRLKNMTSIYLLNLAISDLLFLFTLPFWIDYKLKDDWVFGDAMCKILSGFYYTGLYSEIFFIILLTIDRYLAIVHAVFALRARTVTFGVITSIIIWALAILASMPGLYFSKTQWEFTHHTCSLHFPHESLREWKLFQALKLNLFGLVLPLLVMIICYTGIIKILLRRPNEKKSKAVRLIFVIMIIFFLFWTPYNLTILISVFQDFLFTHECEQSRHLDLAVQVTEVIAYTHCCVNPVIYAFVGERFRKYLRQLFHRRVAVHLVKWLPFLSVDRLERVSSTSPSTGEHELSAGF

[6] = target: T3, Nuclear receptor subfamily 1 group I member 2 (Homo sapiens, UniProt O75469); experiment: Transactivation of human full-length PXR transfected in human HepG2 cells after 24 hrs by luciferase reporter gene assay; assay type: cell-based
T3 sequence (O75469 whole entry): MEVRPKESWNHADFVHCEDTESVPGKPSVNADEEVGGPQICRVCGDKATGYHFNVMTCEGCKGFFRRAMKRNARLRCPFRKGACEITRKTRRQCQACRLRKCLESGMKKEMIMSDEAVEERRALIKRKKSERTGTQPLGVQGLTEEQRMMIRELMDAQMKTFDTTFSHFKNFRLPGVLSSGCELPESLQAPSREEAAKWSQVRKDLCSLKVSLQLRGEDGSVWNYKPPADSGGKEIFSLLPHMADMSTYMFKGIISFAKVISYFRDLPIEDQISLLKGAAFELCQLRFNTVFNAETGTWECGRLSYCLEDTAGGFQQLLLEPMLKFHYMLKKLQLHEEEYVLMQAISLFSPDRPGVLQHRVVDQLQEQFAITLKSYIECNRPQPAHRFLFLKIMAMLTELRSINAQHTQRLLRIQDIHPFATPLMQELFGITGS

[7] = Unbound fraction in human serum; assay type: ADME, cell-free
[8] = target: T4, C-C chemokine receptor type 4 (Homo sapiens) (UniProt P51679); experiment: Binding affinity to CCR4 receptor (unknown origin)
T4 sequence (whole entry): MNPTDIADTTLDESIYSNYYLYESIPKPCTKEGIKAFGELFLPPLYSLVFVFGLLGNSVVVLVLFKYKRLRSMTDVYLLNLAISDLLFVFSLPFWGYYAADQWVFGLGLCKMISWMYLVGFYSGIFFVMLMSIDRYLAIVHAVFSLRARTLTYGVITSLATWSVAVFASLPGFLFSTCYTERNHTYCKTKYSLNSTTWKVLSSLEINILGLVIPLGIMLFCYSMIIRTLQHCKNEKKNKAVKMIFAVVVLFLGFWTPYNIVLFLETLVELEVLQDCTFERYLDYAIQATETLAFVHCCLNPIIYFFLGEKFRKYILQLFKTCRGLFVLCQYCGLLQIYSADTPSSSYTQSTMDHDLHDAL

- Activity [1]: inactive
- IC50 [2]: > 50 µM
- bioavailability [3]: 40%
- remaining at 1 h, 0.5 µM [4]: 86%
- IC50 [5]: 0.001 µM
- EC50 [6]: > 25 µM
- fraction unbound [7]: 0.19
- Activity [8]: inactive
SMILES: CC(C)[C@@H](NC(=O)NCC(C)(C)O)C(=O)N1CC[C@](O)(c2ccc(Cl)cc2)C(C)(C)C1 [BMS-817399]
